Reference: PubChem BioAssay AID248 (DTP/NCI, 2004)
Values joined by “and” are separate entries in the source; they are usually repeats but may differ in a detail not shown here. Identical values can stand only once. Toxic doses and inconclusive results are not listed. No stated cut-off is given here; in the data, active means T/C of 150% or more; inactive means T/C below 125%.

Tested on: L1210 leukemia ip in BDF1 mice, survival T/C
Test: NCI In Vivo Anticancer Drug Screen. Data for tumor model L1210 Leukemia (intraperitoneal) in B6D2F1 (BDF1) mice
Conditions: endpoint: mean survival time, higher = longer survival
How it was run: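 Value reflects the ratio of survival in compound-treated mice to survival in vehicle-treated controls, with both groups carrying the same transplanted tumor.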

[1] = dose: 50.0 mg/kg/injection, schedule: Q04DX003 (ip), vehicle: saline
[2] = dose: 100.0 mg/kg/injection, schedule: Q01DX001 (ip), vehicle: saline
[3] = dose: 100.0 mg/kg/injection, schedule: Q04DX003 (ip), vehicle: saline
[4] = dose: 200.0 mg/kg/injection, schedule: Q01DX001 (ip), vehicle: saline
[5] = dose: 100.0 mg/kg/injection, schedule: Q01DX001 (ip), vehicle: saline with Tween-80
[6] = dose: 200.0 mg/kg/injection, schedule: Q01DX001 (ip), vehicle: saline with Tween-80
[7] = dose: 200.0 mg/kg/injection, schedule: Q04DX003 (ip), vehicle: saline with Tween-80
[8] = dose: 400.0 mg/kg/injection, schedule: Q04DX003 (ip), vehicle: saline with Tween-80
[9] = dose: 100.0 mg/kg/injection, schedule: Q04DX003 (ip), vehicle: saline with Tween-80

Measured: T/C

O=CC1CC2c3ccccc3C1c1ccccc12 (configuration not stated)
inactive: dose: 100.0 mg/kg/injection, schedule: Q01DX009 (ip), vehicle: gum acacia 106 % of control | dose: 100.0 mg/kg/injection, schedule: Q04DX003 (ip), vehicle: gum acacia 95 % of control | dose: 200.0 mg/kg/injection, schedule: Q01DX009 (ip), vehicle: gum acacia 95 % of control | dose: 200.0 mg/kg/injection, schedule: Q04DX003 (ip), vehicle: gum acacia 92 % of control | dose: 400.0 mg/kg/injection, schedule: Q01DX009 (ip), vehicle: gum acacia 102 % of control | dose: 400.0 mg/kg/injection, schedule: Q04DX003 (ip), vehicle: gum acacia 87 % of control

Cn1c(Cl)c(C=O)c2ccccc21
inactive: dose: 50.0 mg/kg/injection, schedule: Q04DX002 (ip), vehicle: Klucel (hydroxypropylcellulose) (HPC) 90 % of control | dose: 100.0 mg/kg/injection, schedule: Q04DX002 (ip), vehicle: Klucel (hydroxypropylcellulose) (HPC) 93 % of control | dose: 200.0 mg/kg/injection, schedule: Q04DX002 (ip), vehicle: Klucel (hydroxypropylcellulose) (HPC) 97 % of control

O=P(O)(Oc1cccc(Cl)c1)Oc1cccc(Cl)c1
inactive: dose: 100.0 mg/kg/injection, schedule: Q04DX002 (ip), vehicle: saline with Tween-80 115 % of control | dose: 200.0 mg/kg/injection, schedule: Q04DX002 (ip), vehicle: saline with Tween-80 104 % of control

CC(=O)c1ccc2cc(O)ccc2c1
inactive: [1] 101 % of control | [2] 97 % of control | [3] 101 % of control | [4] 101 % of control | dose: 200.0 mg/kg/injection, schedule: Q04DX003 (ip), vehicle: saline 103 % of control | dose: 400.0 mg/kg/injection, schedule: Q01DX001 (ip), vehicle: saline 104 % of control

Nc1cc(NC(c2ccccc2)c2ccccc2)c([N+](=O)[O-])c(N)n1
inactive: [5] 98 % of control | [6] 98 % of control | dose: 400.0 mg/kg/injection, schedule: Q01DX001 (ip), vehicle: saline with Tween-80 93 % of control

COC(=O)C1=COC(C)C2CN3CCc4c([nH]c5cc(OC)ccc45)C3CC12 (configuration not stated)
inactive: dose: 22.0 mg/kg/injection, schedule: Q01DX Z (ip), vehicle: other 100 % of control | dose: 44.0 mg/kg/injection, schedule: Q01DX Z (ip), vehicle: other 86 % of control

CN=C(NO)c1ccccc1
inactive: dose: 100.0 mg/kg/injection, schedule: Q01DX001 (ip), vehicle: Klucel (hydroxypropylcellulose) (HPC) 107 % of control | dose: 200.0 mg/kg/injection, schedule: Q01DX001 (ip), vehicle: Klucel (hydroxypropylcellulose) (HPC) 98 % of control

COC(=O)CCC(=O)c1ccc(OC)cc1
inactive: dose: 100.0 mg/kg/injection, schedule: Q01DX009 (ip), vehicle: Klucel (hydroxypropylcellulose) (HPC) 94 % of control | dose: 200.0 mg/kg/injection, schedule: Q01DX009 (ip), vehicle: Klucel (hydroxypropylcellulose) (HPC) 100 % of control | dose: 400.0 mg/kg/injection, schedule: Q01DX009 (ip), vehicle: Klucel (hydroxypropylcellulose) (HPC) 96 % of control

NNc1ccc(-c2ccc(NN)cc2)cc1
inactive: [7] 95 % of control | [8] 98 % of control

NNC(N)=S
inactive: dose: 3.13 mg/kg/injection, schedule: Q04DX003 (ip), vehicle: saline 109 % of control | dose: 6.25 mg/kg/injection, schedule: Q04DX003 (ip), vehicle: saline 104 % of control and 103 % of control | dose: 12.5 mg/kg/injection, schedule: Q04DX003 (ip), vehicle: saline 97 % of control and 100 % of control

Cc1cc[n+](Cc2ccc([N+](=O)[O-])cc2)cc1
inactive: dose: 25.0 mg/kg/injection, schedule: Q01DX009 (ip), vehicle: saline 94 % of control | dose: 50.0 mg/kg/injection, schedule: Q01DX009 (ip), vehicle: saline 89 % of control | [1] 101 % of control | [2] 96 % of control | dose: 100.0 mg/kg/injection, schedule: Q01DX009 (ip), vehicle: saline 93 % of control | [3] 98 % of control | [4] 100 % of control

O=C(CC(O)(C(F)(F)Cl)C(F)(F)Cl)c1cccc([N+](=O)[O-])c1
inactive: dose: 50.0 mg/kg/injection, schedule: Q01DX009 (ip), vehicle: saline with Tween-80 98 % of control | dose: 50.0 mg/kg/injection, schedule: Q04DX003 (ip), vehicle: saline with Tween-80 98 % of control | dose: 100.0 mg/kg/injection, schedule: Q01DX009 (ip), vehicle: saline with Tween-80 98 % of control | [9] 98 % of control | dose: 200.0 mg/kg/injection, schedule: Q01DX009 (ip), vehicle: saline with Tween-80 95 % of control | [7] 98 % of control | [8] 89 % of control

O=C(Nc1ccccc1)c1cc(Cl)cc(Cl)c1Br
inactive: dose: 100.0 mg/kg/injection, schedule: Q01DX001 (ip), vehicle: other 96 % of control | dose: 200.0 mg/kg/injection, schedule: Q01DX001 (ip), vehicle: other 96 % of control | dose: 400.0 mg/kg/injection, schedule: Q01DX001 (ip), vehicle: other 95 % of control

O=[N+]([O-])c1cc(S(=O)(=O)F)ccc1F
inactive: dose: 0.07 mg/kg/injection, schedule: Q01DX009 (ip), vehicle: carboxymethylcellulose (CMC) 97 % of control | dose: 0.15 mg/kg/injection, schedule: Q01DX009 (ip), vehicle: carboxymethylcellulose (CMC) 100 % of control | dose: 0.31 mg/kg/injection, schedule: Q01DX009 (ip), vehicle: carboxymethylcellulose (CMC) 100 % of control | dose: 0.31 mg/kg/injection, schedule: Q04DX003 (ip), vehicle: carboxymethylcellulose (CMC) 92 % of control | dose: 0.46 mg/kg/injection, schedule: Q01DX009 (ip), vehicle: carboxymethylcellulose (CMC) 103 % of control | dose: 0.62 mg/kg/injection, schedule: Q04DX003 (ip), vehicle: carboxymethylcellulose (CMC) 92 % of control | dose: 0.7 mg/kg/injection, schedule: Q01DX009 (ip), vehicle: carboxymethylcellulose (CMC) 96 % of control | dose: 1.05 mg/kg/injection, schedule: Q01DX009 (ip), vehicle: carboxymethylcellulose (CMC) 92 % of control | dose: 1.5 mg/kg/injection, schedule: Q01DX009 (ip), vehicle: other 94 % of control | dose: 2.3 mg/kg/injection, schedule: Q01DX009 (ip), vehicle: other 89 % of control | dose: 3.4 mg/kg/injection, schedule: Q01DX009 (ip), vehicle: other 89 % of control | dose: 5.0 mg/kg/injection, schedule: Q01DX009 (ip), vehicle: other 87 % of control | dose: 10.0 mg/kg/injection, schedule: Q01DX001 (ip), vehicle: carboxymethylcellulose (CMC) 90 % of control

O=C(OC(=O)c1cccc(-c2ccccc2)c1)c1cccc(-c2ccccc2)c1
inactive: dose: 100.0 mg/kg/injection, schedule: Q04DX003 (ip), vehicle: Klucel (hydroxypropylcellulose) (HPC) 104 % of control | dose: 200.0 mg/kg/injection, schedule: Q04DX003 (ip), vehicle: Klucel (hydroxypropylcellulose) (HPC) 101 % of control | dose: 400.0 mg/kg/injection, schedule: Q04DX003 (ip), vehicle: Klucel (hydroxypropylcellulose) (HPC) 96 % of control

COc1ccc(-c2sc(/N=C/c3cc(Br)cc(Br)c3O)c(C#N)c2C)cc1OC
inactive: [5] 89 % of control | [9] 93 % of control | [6] 91 % of control | [7] 98 % of control and 90 % of control | [8] 90 % of control

CCCCCCCC[n+]1cccc(C#N)c1
inactive: dose: 18.75 mg/kg/injection, schedule: Q01DX009 (ip), vehicle: saline 104 % of control | dose: 37.5 mg/kg/injection, schedule: Q01DX009 (ip), vehicle: saline 91 % of control | dose: 37.5 mg/kg/injection, schedule: Q04DX003 (ip), vehicle: acetone 97 % of control | dose: 75.0 mg/kg/injection, schedule: Q01DX001 (ip), vehicle: saline 91 % of control | dose: 75.0 mg/kg/injection, schedule: Q01DX009 (ip), vehicle: saline 93 % of control | dose: 75.0 mg/kg/injection, schedule: Q04DX003 (ip), vehicle: acetone 97 % of control | dose: 150.0 mg/kg/injection, schedule: Q01DX001 (ip), vehicle: saline 95 % of control | dose: 150.0 mg/kg/injection, schedule: Q04DX003 (ip), vehicle: acetone 95 % of control

c1ncc2[nH]cnc2n1
inactive: dose: 27.33 mg/kg/injection, schedule: Q01DX Z (ip), vehicle: carboxymethylcellulose (CMC) 96 % of control | dose: 54.67 mg/kg/injection, schedule: Q01DX Z (ip), vehicle: carboxymethylcellulose (CMC) 96 % of control | dose: 109.35 mg/kg/injection, schedule: Q01DX Z (ip), vehicle: carboxymethylcellulose (CMC) 108 % of control | dose: 218.7 mg/kg/injection, schedule: Q01DX Z (ip), vehicle: carboxymethylcellulose (CMC) 98 % of control
